Results published in ChEMBL document CHEMBL4699449, “Adenosine A Receptor Antagonists for Cancer Immunotherapy” (J Med Chem, 2020).
pIC50, pKi: −log10 of the molar value.

Assays:
[1] = biological target: T1, Adenosine receptor A2b (Homo sapiens, UniProt P29275); test: Antagonist activity at human adenosine A2b receptor expressed in HEK293 cells by radioligand competition binding assay; format: cell-based
T1 sequence (P29275 whole entry): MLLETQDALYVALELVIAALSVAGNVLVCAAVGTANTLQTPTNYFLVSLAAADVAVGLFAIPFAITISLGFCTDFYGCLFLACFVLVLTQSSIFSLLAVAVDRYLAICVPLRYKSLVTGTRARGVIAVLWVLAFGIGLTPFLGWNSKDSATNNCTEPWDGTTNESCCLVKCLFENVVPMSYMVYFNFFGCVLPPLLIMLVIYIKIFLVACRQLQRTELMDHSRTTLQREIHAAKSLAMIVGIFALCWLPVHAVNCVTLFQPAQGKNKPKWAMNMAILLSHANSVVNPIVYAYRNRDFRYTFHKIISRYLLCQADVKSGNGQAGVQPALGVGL

[2] = biological target: T2, Adenosine receptor A1 (Homo sapiens, UniProt P30542); test: Antagonist activity at human adenosine A1 receptor expressed in CHO cells by radioligand competition binding assay; format: cell-based
T2 sequence (P30542 whole entry): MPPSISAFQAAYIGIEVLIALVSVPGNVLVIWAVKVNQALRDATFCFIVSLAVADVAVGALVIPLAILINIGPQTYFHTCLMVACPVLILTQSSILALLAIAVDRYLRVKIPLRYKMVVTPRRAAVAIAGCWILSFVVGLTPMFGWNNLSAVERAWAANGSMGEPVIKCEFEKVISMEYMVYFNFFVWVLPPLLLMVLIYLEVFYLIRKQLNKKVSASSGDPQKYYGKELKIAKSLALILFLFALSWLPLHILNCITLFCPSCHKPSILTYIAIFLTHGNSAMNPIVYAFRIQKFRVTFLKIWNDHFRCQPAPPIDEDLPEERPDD

[3] = biological target: T3, Adenosine receptor A3 (Homo sapiens, UniProt P0DMS8); test: Antagonist activity at human adenosine A3 receptor expressed in HeLa cells by radioligand competition binding assay; format: cell-based
T3 sequence (P0DMS8 whole entry): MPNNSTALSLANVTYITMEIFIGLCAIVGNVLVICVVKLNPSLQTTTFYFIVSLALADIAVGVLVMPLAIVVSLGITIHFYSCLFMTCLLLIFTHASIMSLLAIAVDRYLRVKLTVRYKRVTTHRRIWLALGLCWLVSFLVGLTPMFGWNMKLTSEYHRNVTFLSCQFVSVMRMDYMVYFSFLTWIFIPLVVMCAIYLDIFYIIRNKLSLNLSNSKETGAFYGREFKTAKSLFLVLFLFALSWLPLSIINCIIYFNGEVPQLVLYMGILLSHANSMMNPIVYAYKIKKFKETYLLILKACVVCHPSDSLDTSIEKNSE

[4] = Half life in mouse at 2 mg/kg, iv or 10 mg/kg, po measured up to 24 hrs by LC-MS/MS analysis; format: ADME, organism-based; conditions: in vivo
[5] = biological target: T4, Adenosine receptor A2a (Homo sapiens, UniProt P29274); test: Antagonist activity at human adenosine 2A receptor expressed in HEK293 cells assessed as reduction in NECA-induced cAMP level incubated for 15 mins by HTRF assay; format: functional, cell-based
T4 sequence (P29274 whole entry): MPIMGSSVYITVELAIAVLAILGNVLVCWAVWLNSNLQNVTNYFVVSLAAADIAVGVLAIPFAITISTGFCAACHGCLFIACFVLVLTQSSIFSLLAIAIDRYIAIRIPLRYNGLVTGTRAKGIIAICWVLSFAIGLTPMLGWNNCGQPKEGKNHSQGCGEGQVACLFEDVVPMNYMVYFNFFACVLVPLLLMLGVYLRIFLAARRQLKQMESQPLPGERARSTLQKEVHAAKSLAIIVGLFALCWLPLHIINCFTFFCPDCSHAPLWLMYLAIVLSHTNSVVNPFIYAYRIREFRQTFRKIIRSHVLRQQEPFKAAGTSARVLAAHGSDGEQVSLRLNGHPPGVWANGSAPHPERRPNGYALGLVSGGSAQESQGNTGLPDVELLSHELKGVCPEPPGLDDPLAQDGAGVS

[6] = species: Homo sapiens; test: Selectivity ratio of IC50 for human adenosine A1 receptor expressed in CHO cells to IC50 for human adenosine 2A receptor expressed in HEK293 cells; format: cell-based
[7] = species: Homo sapiens; test: Selectivity ratio of IC50 for human adenosine A3 receptor expressed in CHO cells to IC50 for human adenosine 2A receptor expressed in HEK293 cells; format: cell-based
[8] = Cmax in mouse at 1 mg/kg, iv measured up to 24 hrs by LC-MS/MS analysis; format: ADME, organism-based; design: route intravenous, dose 1 mg/kg, time <=24; conditions: in vivo
[9] = species: Homo sapiens; test: Selectivity ratio of IC50 for human adenosine 2B receptor expressed in HEK293 cells to IC50 for human adenosine 2A receptor expressed in HEK293 cells; format: cell-based
[10] = biological target: T4, Adenosine receptor A2a; test: Antagonist activity at adenosine 2A receptor in human blood assessed as reversal of NECA/LPS-stimulated TNF-alpha release incubated for 5 hrs; format: tissue-based
[11] = biological target: T4, Adenosine receptor A2a; test: Antagonist activity at adenosine 2A receptor in human PBMC assessed as reversal of NECA/CD3/CD28-stimulated IL-2 release incubated for 24 hrs
[12] = Tmax in human at 75 to 200 mg administered as multiple ascending dose; format: ADME; conditions: in vivo, dose 75-200 mg
[13] = Cmax in human at 75 to 200 mg; format: ADME; design: dose 75-200
[14] = Half life in human at 75 to 200 mg; format: ADME; conditions: dose 75-200 mg
[15] = Tmax in human at 75 to 200 mg administered as single ascending dose; format: ADME; conditions: in vivo, dose 75-200 mg
[16] = biological target: T4, Adenosine receptor A2a; test: Antagonist activity at adenosine 2A receptor in human whole blood assessed as reduction in phosphorylated CREB level preincubated for 20 mins followed by adenosine receptor agonist NECA addition and measured after 30 mins by flow cytometric analysis; format: functional, tissue-based
[17] = species: Homo sapiens; test: Selectivity ratio of Ki for human adenosine A3 receptor to Ki for human Adenosine 2A receptor
[18] = species: Homo sapiens; test: Selectivity ratio of Ki for human adenosine A1 receptor to Ki for human Adenosine 2A receptor
[19] = biological target: T4, Adenosine receptor A2a; test: Inhibition of FRET-labelled CA200645 binding to human adenosine 2A receptor expressed in CHO cells incubated for 2 hr by TR-FRET assay; format: cell-based
[20] = biological target: T1, Adenosine receptor A2b; test: Inhibition of FRET-labelled CA200645 binding to human adenosine 2B receptor expressed in CHO cells incubated for 2 hr by TR-FRET assay; format: cell-based
[21] = biological target: T4, Adenosine receptor A2a; test: Antagonist activity at human adenosine 2A receptor expressed in T-REx-CHO cells preincubated for 1 hr followed by NECA stimulation and measured after 30 mins by Eu-cAMP tracer based TR-FRET assay; format: functional, cell-based; conditions: filed as antagonist, time 1.5 hrs
[22] = biological target: T5, Adenosine receptor A2a (Mus musculus, UniProt Q60613); test: Antagonist activity at adenosine 2A receptor in BALB/c mouse T cells assessed as reduction in CGS-21680-induced suppression of IL-2 secretion incubated for 24 hrs by ELISA; format: cell-based, T cell
T5 sequence (Q60613 whole entry): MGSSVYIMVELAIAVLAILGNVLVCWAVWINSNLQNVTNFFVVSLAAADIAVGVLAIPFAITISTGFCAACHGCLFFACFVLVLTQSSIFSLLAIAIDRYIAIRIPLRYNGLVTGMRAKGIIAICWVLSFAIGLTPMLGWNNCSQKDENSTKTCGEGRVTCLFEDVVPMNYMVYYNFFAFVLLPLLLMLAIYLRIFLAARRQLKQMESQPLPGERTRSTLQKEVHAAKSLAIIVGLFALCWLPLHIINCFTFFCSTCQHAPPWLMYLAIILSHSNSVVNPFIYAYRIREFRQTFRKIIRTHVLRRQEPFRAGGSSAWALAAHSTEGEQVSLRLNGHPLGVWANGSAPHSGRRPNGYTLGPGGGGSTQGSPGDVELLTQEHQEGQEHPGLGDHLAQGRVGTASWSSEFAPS

[23] = biological target: T5, Adenosine receptor A2a; test: Antagonist activity at adenosine 2A receptor in BALB/c mouse T cells assessed as reduction in CGS-21680-induced suppression of IFN-gamma secretion incubated for 24 hrs by ELISA; format: cell-based, T cell
[24] = biological target: T6, Adenosine receptor A2b (Homo sapiens) (UniProt P29275); test: Antagonist activity at human adenosine 2B receptor expressed in CHO-K1 cells preincubated for 1 hr followed by NECA stimulation and measured after 30 mins by Eu-cAMP tracer based TR-FRET assay; format: functional, cell-based; conditions: filed as antagonist, time 1.5 hrs
T6 sequence (whole entry): T1 sequence (P29275 whole entry)

[25] = biological target: T2, Adenosine receptor A1; test: Inhibition of FRET-labelled CA200645 binding to human adenosine A1 receptor expressed in CHO cells incubated for 2 hr by TR-FRET assay; format: cell-based
[26] = biological target: T3, Adenosine receptor A3; test: Inhibition of FRET-labelled CA200645 binding to human adenosine A3 receptor expressed in CHO cells incubated for 2 hr by TR-FRET assay; format: cell-based
[27] = biological target: T4, Adenosine receptor A2a; test: Antagonist activity at human adenosine 2A receptor expressed in HEK293 cells assessed as reduction in cAMP production preincubated for 10 mins followed by 3 nM A2A agonist NECA addition and measured after 30 mins by EU-cAMP tracer based TR-FRET assay; format: functional, cell-based
[28] = biological target: T4, Adenosine receptor A2a; test: Antagonist activity at adenosine 2A receptor in human peripheral blood lymphocytes assessed as reduction in NECA-stimulated CREB phosphorylation by flow cytometric analysis; format: functional, cell-based, PBL
[29] = biological target: T4, Adenosine receptor A2a; test: Antagonist activity at human adenosine 2A receptor expressed in HEK293 cells assessed as reduction in cAMP production preincubated for 10 mins followed by adenosine addition and measured after 30 mins by EU-cAMP tracer based TR-FRET assay; format: functional, cell-based
[30] = biological target: T4, Adenosine receptor A2a; test: Antagonist activity at human adenosine 2A receptor expressed in HEK293 cells assessed as reduction in cAMP production preincubated for 10 mins followed by 5 nM A2A agonist NECA addition and measured after 30 mins by EU-cAMP tracer based TR-FRET assay; format: functional, cell-based
[31] = species: Homo sapiens; test: Selectivity ratio of Ki for human adenosine 2B receptor expressed in HEK293 cells to Ki for human adenosine 2A receptor expressed in HEK293 cells; format: cell-based
[32] = biological target: Adenosine receptor A2a (Rattus norvegicus) (UniProt P30543); test: Antagonist activity at adenosine 2A receptor in rat PC12 cells assessed as reduction in NECA-induced cAMP level incubated for 30 mins by TR-FRET assay; format: functional, cell-based; conditions: PC-12, filed as antagonist
Chain of Adenosine receptor A2a (Rattus norvegicus) (P30543 whole entry): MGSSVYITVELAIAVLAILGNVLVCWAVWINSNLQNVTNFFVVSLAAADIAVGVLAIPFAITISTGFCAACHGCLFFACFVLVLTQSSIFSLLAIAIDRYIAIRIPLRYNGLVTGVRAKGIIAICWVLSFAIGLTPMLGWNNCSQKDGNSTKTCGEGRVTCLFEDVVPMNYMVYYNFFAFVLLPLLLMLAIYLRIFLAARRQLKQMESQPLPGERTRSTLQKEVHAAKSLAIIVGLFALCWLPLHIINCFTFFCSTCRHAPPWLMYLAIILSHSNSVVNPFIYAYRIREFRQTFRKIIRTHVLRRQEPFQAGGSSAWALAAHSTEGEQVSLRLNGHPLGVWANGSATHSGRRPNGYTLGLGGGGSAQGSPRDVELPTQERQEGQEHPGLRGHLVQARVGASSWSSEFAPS

## Nc1nc(-n2cccn2)nc(-n2cccn2)c1Br [PBF-509]
[1]
  pKi: 6.00
[2]
  pKi: 5.60
[3]
  pKi: 5.30

## COc1ccc(N2CCOCC2)c2nc(NC(=O)c3cccc(N4CCOCC4)c3)[nH]c12
[4]
  half-life: 69 min
[5]
  pIC50: > 8.00
[6]
  Ratio IC50: 1000
[7]
  Ratio IC50: 1000
[8]
  Cmax: 2100 ng/mL
[9]
  Ratio IC50: 1000

## COCCn1cc(C(=O)Nc2cnc3c(C4CCOCC4)ccc(OC)c3n2)cn1
[4]
  half-life: 20.3 min
[8]
  Cmax: 1220 ng/mL

## COc1ccc(-c2cnn(C)c2)c2nc(NC(=O)N3CC[C@@]4(CCCOC4)C3)[nH]c12
[4]
  half-life: 66.6 min
[8]
  Cmax: 1440 ng/mL

## Cc1cccnc1CNC(=O)c1c(N)nc(-c2ccco2)nc1OC[C@H](C)O
[10]
  pIC50: < 6.70
[11]
  pIC50: 7.11

## COc1ncc(-c2ccccc2)c2ncc(NC(=O)N3CCC(C)(O)CC3)nc12
[5]
  pIC50: > 7.00

## COCCn1cc(C(=O)Nc2nc3c(OC)ccc(N4CCOCC4)c3s2)cn1
[4]
  half-life: 19.9 min

## Cc1c(C#N)cccc1-c1cc(-c2cn(Cc3cccc(C(C)(C)O)n3)nn2)nc(N)n1 [ETRUMADENANT]
[12]
  Tmax: 90 min
[13]
  Cmax: 1170 ng/mL
[14]
  half-life: 1200 min
[15]
  Tmax: 120 min

## COc1nc(-c2ncco2)nc(N)c1C(=O)NCc1c(Cl)cccc1Cl
[16]
  pIC50: 7.77
[17]
  Ratio Ki: 2490
[18]
  Ratio Ki: 230
[10]
  pIC50: < 6.70
[19]
  pKi: 10.11
[20]
  pKi: 8.27

## COc1ccc(N2CCOCC2)c2sc(NC(=O)N3CCC(C)(O)CC3)nc12 [TOZADENANT]
[4]
  half-life: 11 min
[8]
  Cmax: 337 ng/mL

## COc1ccc(C2CCOCC2)c2ncc(NC(=O)N3CCC(C)(O)CC3)nc12
[4]
  half-life: 55.2 min

## COCc1cccc(Cn2cc(-c3cc(-c4ccco4)nc(N)n3)nn2)n1
[21]
  Kb: < 100 nM

## COc1ccc(-c2cnn(C)c2)c2nc(NC(=O)N3CCC(C)(O)CC3)[nH]c12
[4]
  half-life: 52 min
[8]
  Cmax: 1320 ng/mL

## Cc1cccnc1CNC(=O)c1cnc(-c2ccco2)nc1N
[10]
  pIC50: < 6.70
[11]
  pIC50: 7.11

## COc1ccc(-c2ccccc2)c2ncc(NC(=O)N3CCC(C)(O)CC3)nc12
[4]
  half-life: > 120 min
[5]
  pIC50: > 7.00

## COCCn1cc(C(=O)Nc2nc3c(OC)ncc(N4CCOCC4)c3s2)cn1
[4]
  half-life: 49 min
[5]
  pIC50: > 8.00
[8]
  Cmax: 1390 ng/mL

## COc1ncc(N2CCOCC2)c2nc(NC(=O)c3cnn(C)c3)[nH]c12
[4]
  half-life: 103 min
[8]
  Cmax: 733 ng/mL

## COc1ncc(N2CCOCC2)c2nc(NC(=O)N3CCC(C)(O)CC3)[nH]c12
[4]
  half-life: 50.3 min
[8]
  Cmax: 2650 ng/mL

## COc1ncc(N2CCOCC2)c2sc(NC(=O)N3CCC(C)(O)CC3)nc12
[4]
  half-life: 10.3 min
[8]
  Cmax: 449 ng/mL

## COc1ccc(-c2cnn(C)c2)c2nc(NC(=O)c3ccc(Cn4ccnc4)cc3)[nH]c12
[22]
  pIC50: 7.40
[23]
  pIC50: 7.40

## COc1cccc2c(-c3cn(Cc4cccc(C(C)(O)C(F)(F)F)[n+]4[O-])nn3)nc(N)nc12 (centres undefined)
[24]
  Kb: < 100 nM
[21]
  Kb: < 100 nM

## Cc1cccnc1CNC(=O)c1c(N)nc(-c2ccco2)nc1OCCF
[10]
  pIC50: < 6.70
[25]
  pKi: 6.59
[26]
  pKi: 7.21
[19]
  pKi: 8.89

## NC(=O)Cc1cc(N2CCN(CCn3c(=O)sc4c3nc(N)n3nc(-c5ccco5)nc43)CC2)c(F)cc1F
[27]
  pIC50: 9.30
[28]
  pIC50: 7.70
[29]
  pIC50: 7.31
[30]
  pIC50: 8.70

## COCCOc1ccc(N2CCN(CCn3ncc4c3nc(N)n3nc(-c5ccco5)nc43)CC2)cc1
[17]
  Ratio Ki: 1000
[18]
  Ratio Ki: 1000
[31]
  Ratio Ki: 1000

## COc1cccc2c(-c3cn(Cc4cccc(C(C)(C)O)n4)nn3)nc(N)nc12
[24]
  Kb: < 100 nM
[21]
  Kb: < 100 nM

## Nc1nc(-c2ccccc2)c(-c2ccc(O)c(Cl)c2)n2ccnc12
[32]
  Kb: < 10000 nM
